Reference: publication PMC10247784, “Physiological activation of human and mouse bitter taste receptors by bile acids” (Communications Biology, 2023)

System: HEK293T-Gα16gust44 cells transfected with empty vector (mock)
Test: Calcium imaging assay (FLIPR), empty vector control (mock)
Format: cell-based
Procedure: This set of bile acids was chosen because of their commercial availability in high purities, their diversity within the class of bile acids and their previous detection and quantitation in human blood. Stock solutions were prepared in DMSO.
As basal growth medium for the HEK293T-Gα16gust44 cell line[17],[59] served Dulbecco’s modified eagle medium (DMEM) (Thermo Fisher Scientific, Darmstadt, Germany) supplemented with 10 % fetal bovine serum (Sigma-Aldrich, Steinheim, Germany), 2 mM L-glutamine (Sigma-Aldrich, Steinheim, Germany), 100 units/ml penicillin (Sigma Aldrich, Steinheim, Germany) and 100 µg/ml streptomycin (Sigma Aldrich, Steinheim, Germany). Growth conditions were 37 °C, 5 % CO2 and saturated air-humidity[60].
HEK293T-Gα16gust44 cells were seeded on poly-D-lysine (10 µg/ml) coated 96-well plates to reach a confluence of 40-60 % the next day. For transient transfection 150 ng of plasmid DNA containing the receptor of interest and 0.3 µl lipofectamine 2000 (Thermo Fisher Scientific, Darmstadt, Germany) per well were used and transfection took place according to the manual of lipofectamine 2000. […] The empty vector DNA (mock) was transfected as negative control[14],[41].
Cells were loaded using the calcium-sensitive fluorescent dye Fluo-4-AM (Abcam, Cambridge, Great Britain) in the presence of 2.5 mM probenecid (Sigma-Aldrich, Steinheim, Germany) the day after transfection[13],[41]. 1 h after loading, cells were washed with C1 buffer using a BioTek Cell Washer, incubated in the dark for half an hour and washed again. For automated agonist application and measurement of fluorescence changes, a FLIPR^TETRA device (Molecular Devices, San José, United States) was used. Viability of cells was tested by application of 100 nM Somatostatin 14 (Bachem, Bubendorf, Switzerland)[42].
Measured data were negative control corrected by subtracting the signal of the mock-transfected cells and exported to Microsoft Excel using the FLIPR software ScreenWorks 4.2. In Microsoft Excel software, standardization of maximum fluorescence intensities to the basal fluorescence and normalization to the buffer-only control was done to calculate the relative fluorescence changes (ΔF/F).
Initial screening experiments performed in duplicate wells were confirmed by at least one replication and representative traces were selected for display. All dose-response relationships were determined by three independent experiments (biological replicates) performed in duplicates (technical replicates). Threshold concentrations, defined as lowest substance concentrations leading to statistically significant elevated fluorescence changes in receptor-transfected cells compared with empty vector-transfected cells, were determined using SigmaPlot with Student’s t-test to evaluate statistical significance (p < 0.01).

[1] = Mock, sheet TAS2R14, conc. 0,01 mM
[2] = Mock, sheet TAS2R14, conc. 0,03 mM
[3] = Mock, sheet TAS2R14, conc. 0,001 mM
[4] = Mock, sheet TAS2R14, conc. 0,003 mM
[5] = conc. 0,01 mM, Mock (sheet TAS2R1)
[6] = conc. 0,0003 mM, Mock (sheet TAS2R1)
[7] = conc. 0,001 mM, Mock (sheet TAS2R1)
[8] = conc. 0,003 mM, Mock (sheet TAS2R1)
[9] = Mock (sheet Tas2r123), conc. 0,01 mM
[10] = Mock (sheet Tas2r123), conc. 0,03 mM
[11] = Mock (sheet Tas2r123), conc. 0,001 mM
[12] = Mock (sheet Tas2r123), conc. 0,003 mM
[13] = Mock, sheet TAS2R4, conc. 0,01 mM
[14] = Mock, sheet TAS2R4, conc. 0,03 mM
[15] = Mock, sheet TAS2R4, conc. 0,001 mM
[16] = Mock, sheet TAS2R4, conc. 0,003 mM
[17] = Mock, sheet Tas2r105, conc. 0,01 mM
[18] = Mock, sheet Tas2r105, conc. 0,03 mM
[19] = Mock, sheet Tas2r105, conc. 0,001 mM
[20] = Mock, sheet Tas2r105, conc. 0,003 mM
[21] = Mock, sheet Tas2r108, conc. 0,01 mM
[22] = Mock, sheet Tas2r108, conc. 0,03 mM
[23] = Mock, sheet Tas2r108, conc. 0,001 mM
[24] = Mock, sheet Tas2r108, conc. 0,003 mM
[25] = conc. 0,03 mM, Mock (sheet TAS2R1)

C[C@H](CCC(=O)O)[C@H]1CC[C@H]2[C@@H]3[C@H](O)C[C@@H]4C[C@H](O)CC[C@]4(C)[C@H]3CC[C@]12C [Chenodeoxycholic Acid, chenodeoxycholic acid] was tested, and the “Δ F/F” value [1] was -0.007814, the “Δ F/F” value [2] was -0.004111 and the “Δ F/F” value (Mock, sheet TAS2R14, conc. 0,00003 mM) was -0.01383. For the same compound, the “Δ F/F” value (Mock, sheet TAS2R14, conc. 0,0001 mM) was -0.0179, the “Δ F/F” value (Mock, sheet TAS2R14, conc. 0,0003 mM) was -0.01292 and the “Δ F/F” value [3] was -0.005111. The “Δ F/F” value [4] was -0.006729, the “Δ F/F” value [5] was -0.001385 and the “Δ F/F” value (conc. 0,00003 mM, Mock (sheet TAS2R1)) was -0.0006042. The “Δ F/F” value (conc. 0,0001 mM, Mock (sheet TAS2R1)) was -0.001709, the “Δ F/F” value [6] was -0.001427 and the “Δ F/F” value [7] was -0.001629. The “Δ F/F” value [8] was -0.001467.

In the case of C[C@H](CCC(=O)NCC(=O)O)[C@H]1CC[C@H]2[C@@H]3[C@H](O)C[C@@H]4C[C@H](O)CC[C@]4(C)[C@H]3C[C@H](O)[C@]12C [Glycocholic Acid, glycocholic acid], the “Δ F/F” value (Conc. 0,01 mM, Mock (sheet TAS2R39)) is reported as -0.01548, the “Δ F/F” value (Conc. 0,1 mM, Mock (sheet TAS2R39)) is reported as -0.02609 and the “Δ F/F” value (Conc. 0,03 mM, Mock (sheet TAS2R39)) is reported as -0.02235. For the same compound, the “Δ F/F” value (Conc. 0,3 mM, Mock (sheet TAS2R39)) was -0.04919, the “Δ F/F” value (Conc. 0,001 mM, Mock (sheet TAS2R39)) was -0.01811 and the “Δ F/F” value (Conc. 1 mM, Mock (sheet TAS2R39)) was -0.07251. For the same compound, the “Δ F/F” value (Conc. 0,003 mM, Mock (sheet TAS2R39)) was -0.02014, the “Δ F/F” value [9] was -0.001257 and the “Δ F/F” value (Mock (sheet Tas2r123), conc. 0,1 mM) was -0.001605. For the same compound, the “Δ F/F” value [10] was -0.001376, the “Δ F/F” value (Mock (sheet Tas2r123), conc. 0,3 mM) was 0.0005119 and the “Δ F/F” value [11] was -0.001339. For the same compound, the “Δ F/F” value [12] was -0.001948, the “Δ F/F” value (Mock (sheet Tas2r126), conc. 0,01 mM) was -0.0096 and the “Δ F/F” value (Mock (sheet Tas2r126), conc. 0,1 mM) was -0.02403. For the same compound, the “Δ F/F” value (Mock (sheet Tas2r126), conc. 0,03 mM) was -0.01217, the “Δ F/F” value (Mock (sheet Tas2r126), conc. 0,3 mM) was -0.03338 and the “Δ F/F” value (Mock (sheet Tas2r126), conc. 0,001 mM) was -0.01229. For the same compound, the “Δ F/F” value (Mock (sheet Tas2r126), conc. 1 mM) was -0.06654, the “Δ F/F” value (Mock (sheet Tas2r126), conc. 0,003 mM) was -0.01228 and the “Δ F/F” value (Mock (sheet Tas2r144), conc. 0,01 mM) was 0.0008421. The “Δ F/F” value (Mock (sheet Tas2r144), conc. 0,1 mM) was 0.001148, the “Δ F/F” value (Mock (sheet Tas2r144), conc. 0,03 mM) was -3.983e-5 and the “Δ F/F” value (Mock (sheet Tas2r144), conc. 0,3 mM) was 0.0006824. For the same compound, the “Δ F/F” value (Mock (sheet Tas2r144), conc. 0,003 mM) was 0.002307, the “Δ F/F” value [13] was -0.0004971 and the “Δ F/F” value (Mock, sheet TAS2R4, conc. 0,1 mM) was -0.0007383. For the same compound, the “Δ F/F” value [14] was -0.0008538, the “Δ F/F” value (Mock, sheet TAS2R4, conc. 0,3 mM) was 3.213e-5 and the “Δ F/F” value [15] was -0.0002133. The “Δ F/F” value [16] was -6.081e-5, the “Δ F/F” value [1] was -0.01698 and the “Δ F/F” value (Mock, sheet TAS2R14, conc. 0,1 mM) was -0.02625. For the same compound, the “Δ F/F” value [2] was -0.01883, the “Δ F/F” value (Mock, sheet TAS2R14, conc. 0,3 mM) was -0.03707 and the “Δ F/F” value [3] was -0.0212. For the same compound, the “Δ F/F” value (Mock, sheet TAS2R14, conc. 1 mM) was -0.05126, the “Δ F/F” value [4] was -0.01715 and the “Δ F/F” value (Mock, sheet TAS2R46, conc. 0,01 mM) was -0.02275. For the same compound, the “Δ F/F” value (Mock, sheet TAS2R46, conc. 0,1 mM) was -0.03044, the “Δ F/F” value (Mock, sheet TAS2R46, conc. 0,03 mM) was -0.02768 and the “Δ F/F” value (Mock, sheet TAS2R46, conc. 0,3 mM) was -0.0463. For the same compound, the “Δ F/F” value (Mock, sheet TAS2R46, conc. 0,001 mM) was -0.02143, the “Δ F/F” value (Mock, sheet TAS2R46, conc. 1 mM) was -0.07983 and the “Δ F/F” value (Mock, sheet TAS2R46, conc. 0,003 mM) was -0.02717. For the same compound, the “Δ F/F” value [17] was -0.01859, the “Δ F/F” value (Mock, sheet Tas2r105, conc. 0,1 mM) was -0.0309 and the “Δ F/F” value [18] was -0.02007. For the same compound, the “Δ F/F” value (Mock, sheet Tas2r105, conc. 0,3 mM) was -0.05122, the “Δ F/F” value [19] was -0.01558 and the “Δ F/F” value (Mock, sheet Tas2r105, conc. 1 mM) was -0.09069. The “Δ F/F” value [20] was -0.01717, the “Δ F/F” value [21] was -0.01889 and the “Δ F/F” value (Mock, sheet Tas2r108, conc. 0,1 mM) was -0.02753. For the same compound, the “Δ F/F” value [22] was -0.02185, the “Δ F/F” value (Mock, sheet Tas2r108, conc. 0,3 mM) was -0.04768 and the “Δ F/F” value [23] was -0.0151. For the same compound, the “Δ F/F” value (Mock, sheet Tas2r108, conc. 1 mM) was -0.06489, the “Δ F/F” value [24] was -0.01714 and the “Δ F/F” value (Mock, sheet Tas2r117, conc. 0,01 mM) was -0.001257. For the same compound, the “Δ F/F” value (Mock, sheet Tas2r117, conc. 0,1 mM) was -0.001605, the “Δ F/F” value (Mock, sheet Tas2r117, conc. 0,03 mM) was -0.001376 and the “Δ F/F” value (Mock, sheet Tas2r117, conc. 0,3 mM) was 0.0005119. For the same compound, the “Δ F/F” value (Mock, sheet Tas2r117, conc. 0,0003 mM) was -0.001061, the “Δ F/F” value (Mock, sheet Tas2r117, conc. 0,001 mM) was -0.001339 and the “Δ F/F” value (Mock, sheet Tas2r117, conc. 0,003 mM) was -0.001948. For the same compound, the “Δ F/F” value [5] was -0.001476, the “Δ F/F” value (conc. 0,1 mM, Mock (sheet TAS2R1)) was -0.002206 and the “Δ F/F” value [25] was -0.001334. The “Δ F/F” value (conc. 0,3 mM, Mock (sheet TAS2R1)) was 0.00174, the “Δ F/F” value [7] was -0.0005627 and the “Δ F/F” value [8] was 0.0001343.

For C[C@H](CCC(=O)O)[C@H]1CC[C@H]2[C@@H]3CC[C@@H]4C[C@H](O)CC[C@]4(C)[C@H]3C[C@H](O)[C@]12C [Deoxycholic Acid, deoxycholic acid], the “Δ F/F” value [9] was -0.0008829, the “Δ F/F” value [10] was -0.0003165 and the “Δ F/F” value (Mock (sheet Tas2r123), conc. 0,0001 mM) was 0.00132. The “Δ F/F” value (Mock (sheet Tas2r123), conc. 0,0003 mM) was -0.002173, the “Δ F/F” value [11] was -0.000706 and the “Δ F/F” value [12] was -0.0005125. For the same compound, the “Δ F/F” value [13] was 0.0004181, the “Δ F/F” value [14] was 0.001864 and the “Δ F/F” value (Mock, sheet TAS2R4, conc. 0,0003 mM) was 0.0005365. For the same compound, the “Δ F/F” value [15] was 0.0001116, the “Δ F/F” value [16] was 0.0001746 and the “Δ F/F” value [17] was -0.01259. The “Δ F/F” value [18] was -0.004122, the “Δ F/F” value (Mock, sheet Tas2r105, conc. 0,00003 mM) was -0.01446 and the “Δ F/F” value (Mock, sheet Tas2r105, conc. 0,0001 mM) was -0.0178. The “Δ F/F” value (Mock, sheet Tas2r105, conc. 0,0003 mM) was -0.01787, the “Δ F/F” value [19] was -0.0148 and the “Δ F/F” value [20] was -0.01449. The “Δ F/F” value [21] was -0.006813, the “Δ F/F” value [22] was -0.0003425 and the “Δ F/F” value (Mock, sheet Tas2r108, conc. 0,00003 mM) was -0.01113. The “Δ F/F” value (Mock, sheet Tas2r108, conc. 0,0001 mM) was -0.01772, the “Δ F/F” value (Mock, sheet Tas2r108, conc. 0,0003 mM) was -0.01462 and the “Δ F/F” value [23] was -0.01703. The “Δ F/F” value [24] was -0.01481, the “Δ F/F” value [5] was -0.0008034 and the “Δ F/F” value [25] was -0.0003771. The “Δ F/F” value [6] was -0.002238, the “Δ F/F” value [7] was -0.001593 and the “Δ F/F” value [8] was -0.0004081.
